The term EC50 denotes the concentration that produces a half-maximal response.

Calls of active or inactive are those of the source. No cut-off for these calls is given here.

For data set [1], the target named is T1, Glutamate receptor ionotropic, AMPA (Rattus norvegicus) (UniProt P19491+P19492+P19493+P19490). The data set can be described thus: Positive allosteric modulation at AMPAR in rat Primary embryonic cortical cell assessed as concentration required for 2 fold increase in AMPA induced fluorescence by FDSS fluorescence assay. Particulars: Cerebral cortex cell, filed as positive allosteric modulator. The format is cell-based.

The target in data set [2] is Glutamate receptor ionotropic AMPA (Homo sapiens, UniProt P42261+P42262+P42263+P48058). The data set can be described thus: Positive allosteric modulation at AMPAR in HEK293 cells expressing GluA2Qi subunit assessed as glutamate induced calcium influx. The format is cell-based.
Data set [3] in a line: Toxicity in NMR1 mouse assessed as effect on hypothermia at 30 mg/kg measured upto 180 mins. It counts as organism-based. Particulars: in vivo, 3 h.
Data set [4] deals with Glutamate receptor ionotropic AMPA (Homo sapiens) (UniProt P48058+P42263+P42262+P42261). The data set can be described thus: Positive allosteric modulation at AMPAR in HEK293 cells expressing GluA2 assessed as glutamate induced calcium influx by measuring efficacy relative to control. The format is cell-based. Particulars: filed as positive allosteric modulator.
Data set [5] addresses Glutamate receptor ionotropic kainate 1 (Homo sapiens) (UniProt P39086). The data set can be described thus: Positive allosteric modulation at kainate receptor in HEK293 cells expressing GluK1-Q1b assessed as glutamate induced calcium influx by measuring efficacy relative to control. Particulars: filed as positive allosteric modulator.
For data set [6], the target named is Glutamate receptor ionotropic kainate 2 (Homo sapiens) (UniProt Q13002). The data set can be described thus: Positive allosteric modulation at kainate receptor in HEK293 cells expressing GluK2-Q2a assessed as glutamate induced calcium influx by measuring efficacy relative to control. Particulars: filed as positive allosteric modulator.
Glutamate receptor ionotropic kainate 2 (Homo sapiens), sequence (Q13002 whole entry, looked up): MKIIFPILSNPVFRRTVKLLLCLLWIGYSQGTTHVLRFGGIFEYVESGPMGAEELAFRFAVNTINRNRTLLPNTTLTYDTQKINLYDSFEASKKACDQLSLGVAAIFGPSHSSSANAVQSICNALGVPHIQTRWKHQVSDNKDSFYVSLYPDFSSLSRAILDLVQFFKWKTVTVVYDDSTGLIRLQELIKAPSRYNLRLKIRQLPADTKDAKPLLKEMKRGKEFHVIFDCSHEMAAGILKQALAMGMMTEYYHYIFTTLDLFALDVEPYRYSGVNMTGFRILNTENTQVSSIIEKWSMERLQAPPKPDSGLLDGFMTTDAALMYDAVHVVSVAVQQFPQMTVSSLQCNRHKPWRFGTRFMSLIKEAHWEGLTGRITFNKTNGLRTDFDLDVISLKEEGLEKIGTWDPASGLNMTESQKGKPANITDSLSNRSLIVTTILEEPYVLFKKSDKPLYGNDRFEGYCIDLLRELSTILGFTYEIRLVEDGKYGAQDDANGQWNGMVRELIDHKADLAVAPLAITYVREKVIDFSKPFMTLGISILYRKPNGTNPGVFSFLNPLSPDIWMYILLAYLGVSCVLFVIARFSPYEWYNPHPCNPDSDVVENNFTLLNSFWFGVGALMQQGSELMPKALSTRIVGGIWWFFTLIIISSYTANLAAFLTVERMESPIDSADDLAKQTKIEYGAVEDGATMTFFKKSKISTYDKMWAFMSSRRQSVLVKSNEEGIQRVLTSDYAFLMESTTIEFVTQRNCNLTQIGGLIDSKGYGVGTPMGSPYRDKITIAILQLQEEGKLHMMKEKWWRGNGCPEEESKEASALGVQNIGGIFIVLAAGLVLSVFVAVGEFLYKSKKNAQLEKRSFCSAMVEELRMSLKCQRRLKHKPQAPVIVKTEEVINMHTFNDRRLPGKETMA
Data set [7] deals with T1, Glutamate receptor ionotropic, AMPA (Rattus norvegicus). The data set can be described thus: Positive allosteric modulation at AMPAR in rat Primary embryonic cortical cell assessed as concentration required for 2 fold increase in AMPA induced fluorescence. The format is cell-based. Particulars: filed as positive allosteric modulator.
The target is the same in data set [8]. The data set can be described thus: Positive allosteric modulation at AMPAR in rat Primary embryonic cortical cell assessed as concentration required for 2 fold increase in AMPA induced fluorescence by FlipR assay. The format is cell-based. To be noted: filed as positive allosteric modulator.
For data set [9] the target is unchanged. The data set can be described thus: Positive allosteric modulation of rat cortex AMPAR expressed in xenopus oocytes assessed as concentration required for 2 fold increase in AMPA induced […]. Particulars: Oocyte, filed as positive allosteric modulator. It counts as cell-based.
Data set [10] in a line: Toxicity in NMR1 mouse assessed as pro-convulsant effect at 100 mg/kg measured upto 180 mins. It counts as organism-based. Particulars: in vivo, 3 h.
Data set [11] in a line: Toxicity in NMR1 mouse assessed as effect on hypothermia at 100 mg/kg measured upto 180 mins. It counts as organism-based. Particulars: in vivo, 3 h.
The test system of data set [12] is Rattus norvegicus. The data set can be described thus: Cognition enhancing effect in Wistar rat assessed as increase in amplitude of initial post-synaptic response at 30 mg/kg, ip pretreated for 1 hr followed by tetanic stimulation and measured for 3 hrs. To be noted: time 4.0 hrs. The format is functional, organism-based.
In data set [13] the test system is Mus musculus. The data set can be described thus: Cognition enhancing effect in CD1 mouse assessed as increase in exploration time spent on new object at 1 mg/kg, po measured after 1 hr by object recognition test (reference value: 35%). The format is functional.
Data set [14] relates to Mus musculus. The data set can be described thus: Cognition enhancing effect in CD1 mouse assessed as increase in exploration time spent on new object at 3 mg/kg, po measured after 1 hr by object recognition test (reference value: 35%). The format is functional.

Glutamate receptor ionotropic kainate 1 (Homo sapiens), sequence (P39086 whole entry, looked up): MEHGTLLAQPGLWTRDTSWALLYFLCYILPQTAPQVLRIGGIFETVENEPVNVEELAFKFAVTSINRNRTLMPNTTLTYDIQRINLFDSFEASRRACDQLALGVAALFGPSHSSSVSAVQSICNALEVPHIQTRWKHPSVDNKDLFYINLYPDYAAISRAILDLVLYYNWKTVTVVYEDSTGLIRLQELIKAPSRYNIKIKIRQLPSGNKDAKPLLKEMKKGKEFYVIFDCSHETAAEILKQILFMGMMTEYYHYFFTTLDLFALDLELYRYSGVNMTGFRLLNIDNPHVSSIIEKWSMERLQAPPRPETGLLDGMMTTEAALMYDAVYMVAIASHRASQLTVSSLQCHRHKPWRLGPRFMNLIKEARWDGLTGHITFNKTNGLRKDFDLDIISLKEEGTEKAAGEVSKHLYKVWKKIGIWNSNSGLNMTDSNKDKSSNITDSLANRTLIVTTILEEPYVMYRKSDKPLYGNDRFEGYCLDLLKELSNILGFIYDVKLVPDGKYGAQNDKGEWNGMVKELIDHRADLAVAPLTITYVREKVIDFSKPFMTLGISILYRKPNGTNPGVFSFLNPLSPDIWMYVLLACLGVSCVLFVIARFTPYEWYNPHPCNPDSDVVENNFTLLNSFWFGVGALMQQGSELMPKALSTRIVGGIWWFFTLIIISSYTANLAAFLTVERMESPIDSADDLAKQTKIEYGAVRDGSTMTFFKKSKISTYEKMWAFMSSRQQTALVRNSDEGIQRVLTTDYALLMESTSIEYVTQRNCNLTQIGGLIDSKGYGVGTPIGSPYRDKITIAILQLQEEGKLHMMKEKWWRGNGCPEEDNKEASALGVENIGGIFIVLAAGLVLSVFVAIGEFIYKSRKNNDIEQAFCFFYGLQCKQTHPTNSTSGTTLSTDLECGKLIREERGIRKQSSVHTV

With `O=S1(=O)NCN(C2CC2)c2cc(Cl)sc21`, the EC in [1] is 0.24 µM. Moreover, the EC50 in data set [2] was found to be 4.7 µM. Also, the values for the Activity entry in [3] and in data set [4] were “Toxic” and 126%, respectively. The figures for the Efficacy in data set [5] and in [6] were 50% and 80%, respectively.

`O=S1(=O)NCN(C2CC2)c2ccc(F)cc21`: the Activity in data set [4] was found to be 100%. Besides, the EC in data set [7] was determined as 0.27 µM.

Consider `C=CCN1CNS(=O)(=O)c2sc(Cl)cc21`, for which the EC in data set [8] is 18.5 µM. In addition, the EC50 in data set [2] worked out at 26.9 µM. The Activity in data set [4] came out at 126%. For the same molecule, the Efficacy in data set [5] came to 112%; in data set [6], 80%.

With `O=S1(=O)CCC(C2CC2)c2ccc(F)cc21` (centres undefined), the EC in data set [7] is 2.2 µM.

In the case of `CN1C2CCCN2c2cc(Cl)sc2S1(=O)=O` (centres undefined), in [8], the EC was 40.1 µM. In addition, the EC50 in data set [2] was more than 100 µM.

Take `O=S1(=O)N[C@H]2CCCN2C2CCCCC21` (some centres undefined): the EC in [9] amounted to 24.6 µM.

`C=CCN1CN(C)S(=O)(=O)c2sc(Cl)cc21`: in [8], the EC came out at 80.4 µM. Also, the EC50 in data set [2] was found to be 76.5 µM.

`CCN1c2cc(Cl)sc2S(=O)(=O)N(C)C1C` (centres undefined): in [8], the EC is 6.4 µM. Besides, the 50% effective concentration (EC50) in [2] was 24.6 µM. In addition, the Efficacy came out at 50% in data set [5] and 60% in data set [6].

Turning to `CC1N(CC(F)F)c2cc(Cl)sc2S(=O)(=O)N1C` (centres undefined), the EC in [1] was 1.2 µM. In addition, the EC50 in data set [2] came to 31.5 µM. Moreover, the Efficacy in [5] was 50%; in data set [6] it was 60%.

Regarding `CN1CN(CC(F)F)c2cc(Cl)sc2S1(=O)=O`, in data set [1], the EC came out at 24.5 µM. Also, the EC50 in [2] was 39.9 µM.

As for `O=S1(=O)NC2CCCN2c2cc(Cl)sc21` (centres undefined), the Activity entry in data set [10] was “Non-Toxic”; in data set [11], “Non-Toxic”; in data set [13] it was 82%; in data set [14], 69%. Besides, in data set [12], the result was Active.
